We go through twelve compounds from ChEMBL document CHEMBL1201862, “PubChem BioAssay data set” (2004).

Structures are written as SMILES.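 Results reflect a 48-hour exposure of cells in 96-well plates to compound at five concentrations. GI50: concentration for 50% inhibition of growth.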 Calls of active or inactive are those of the source. No stated cut-off is given here; in the data, active = GI50 up to about 1.1 µM and inactive = higher.

Test systems include NCI-H226; SK-MEL-2; HOP-62; SNB-75; SN12C; LOX IMVI; SW-620; HOP-92; SK-MEL-5; HCT-15; SNB-19; SF-268; HL-60; HT-29; HCT-116; A549; U-251; SK-MEL-28.
Holding throughout (assay): inhibition of tumour cell growth, NCI panel, 48 h

Consider `COc1ccc(OC(C)=O)c2c1CCC=CC2=O`, for which the GI50 is 18.8 µM (inactive) in the experiment with NCI-H226; 17.8 µM (inactive) in the experiment with SK-MEL-2; 14.7 µM (inactive) in the experiment on HOP-62; 15.8 µM (inactive) with SNB-75; 17.1 µM (inactive) in the experiment on SN12C; 4.7 µM (inactive) in the experiment on LOX IMVI. Also, the GI50 was 13.2 µM (inactive) with SW-620; 2.83 µM (inactive) in the experiment on HOP-92; 15.6 µM (inactive) in the experiment on SK-MEL-5; 14.5 µM in the experiment on HCT-15; 17.6 µM (inactive) in the experiment with SNB-19; > 10 µM (inactive) in the experiment with SF-268. Further, the GI50 in the experiment with HL-60 is 2.47 µM (inactive); with HT-29, 12.3 µM (inactive); with HCT-116, 18.7 µM (inactive); with A549 it was 19.1 µM (inactive); with U-251 it was 18.3 µM (inactive); in the experiment with SK-MEL-28, 15 µM (inactive).

Consider `Cc1nc(-n2nc(-c3ccccc3)cc2-c2ccccc2)sc1C(/C=C/c1ccc([N+](=O)[O-])cc1)=N/NC(=O)c1ccncc1`, for which the GI50 with NCI-H226 was 17.9 µM (inactive); in the experiment with SK-MEL-2 it was 17.7 µM (inactive); with HOP-62, 12.8 µM (inactive); in the experiment with SNB-75, 22.9 µM (inactive); with SN12C it was 24.2 µM (inactive); in the experiment on LOX IMVI, 14.2 µM (inactive). Besides, the GI50 with SW-620 is 26.7 µM (inactive); in the experiment on HOP-92, 11.5 µM (inactive); in the experiment with SK-MEL-5 it was 18.1 µM (inactive); with HCT-15, 14.7 µM; in the experiment with SNB-19, 14 µM (inactive); in the experiment with SF-268 it was 20 µM (inactive). Also, the GI50 in the experiment with HL-60 was 11 µM (inactive); with HT-29, 14.4 µM (inactive); with HCT-116, 9.12 µM (inactive); with A549, 30.3 µM (inactive); in the experiment on U-251, 27.7 µM (inactive); in the experiment with SK-MEL-28 it was 31.1 µM (inactive).

Turning to `O=c1[nH]c(Br)nc2c(N3CCCCC3)c[nH]c12`, the GI50 in the experiment with NCI-H226, in the experiment on SK-MEL-2, in the experiment on HOP-62, in the experiment on SNB-75, in the experiment with SN12C and in the experiment on LOX IMVI was > 100 µM (inactive) each time. Besides, the GI50 in the experiment on SW-620 was > 100 µM (inactive); in the experiment on HOP-92, > 100 µM (inactive); in the experiment on SK-MEL-5, > 100 µM (inactive); in the experiment with HCT-15 it was more than 100 µM; with SNB-19 it was > 100 µM (inactive); in the experiment with SF-268, > 100 µM (inactive). Further, the GI50 in the experiment on HL-60, in the experiment on HT-29, in the experiment on HCT-116, in the experiment with A549, in the experiment with U-251 and in the experiment with SK-MEL-28 was > 100 µM (inactive) each time.

Regarding `Cc1ccccc1N(CC(=O)O)S(=O)(=O)c1ccccc1`, the GI50 in the experiment with NCI-H226, in the experiment with SK-MEL-2, in the experiment on SNB-75, in the experiment with SN12C, with LOX IMVI and in the experiment with SW-620 was > 100 µM (inactive) throughout. Besides, the GI50 in the experiment on HOP-92 was > 100 µM (inactive); in the experiment on SK-MEL-5, > 100 µM (inactive); in the experiment on HCT-15, more than 100 µM; in the experiment with SNB-19, > 100 µM (inactive); in the experiment on SF-268, > 100 µM (inactive); in the experiment with HL-60, > 100 µM (inactive). Besides, the GI50 in the experiment on HT-29, with A549, in the experiment with U-251 and in the experiment with SK-MEL-28 was > 100 µM (inactive) throughout.

For `CCOc1ccccc1NC(=O)/C=C1\NC(=O)CS1`, the GI50 in the experiment with NCI-H226 is > 100 µM (inactive); in the experiment with SK-MEL-2, > 100 µM (inactive); with HOP-62 it was > 100 µM (inactive); in the experiment on SNB-75, 26.9 µM (inactive); in the experiment on SN12C it was > 100 µM (inactive); in the experiment on LOX IMVI it was > 100 µM (inactive). Further, the GI50 in the experiment on SW-620, with HOP-92, in the experiment on SK-MEL-5, in the experiment on SNB-19, in the experiment with SF-268 and in the experiment with HL-60 was > 100 µM (inactive) in each case. In addition, the GI50 with HT-29, with HCT-116, with A549, in the experiment with U-251 and in the experiment on SK-MEL-28 was > 100 µM (inactive) throughout.

With `O=c1[nH]c2cc(-c3ccccc3)nc-2nn1-c1c(Cl)cc(Cl)cc1Cl`, the GI50 was 23.7 µM (inactive) in the experiment with NCI-H226; 26.5 µM (inactive) in the experiment with SK-MEL-2; 25.5 µM (inactive) in the experiment with HOP-62; 28.6 µM (inactive) in the experiment on SN12C; 24.3 µM (inactive) in the experiment on LOX IMVI; 33.7 µM (inactive) in the experiment on SW-620. The GI50 was 31.5 µM (inactive) in the experiment on HOP-92; 25.9 µM (inactive) in the experiment with SK-MEL-5; 36 µM with HCT-15; 33.1 µM (inactive) in the experiment with SNB-19; > 100 µM (inactive) in the experiment on SF-268; 20.5 µM (inactive) in the experiment on HL-60. Besides, the GI50 is 34.4 µM (inactive) with HT-29; 22.4 µM (inactive) with HCT-116; 37.6 µM (inactive) with A549; 19.1 µM (inactive) in the experiment with U-251; > 100 µM (inactive) with SK-MEL-28.

Turning to `COc1ccc2c(c1)[n+]([O-])c(-c1nc3ccccc3s1)c(N)[n+]2[O-]`, the GI50 is > 100 µM (inactive) in the experiment with NCI-H226; > 100 µM (inactive) in the experiment with SK-MEL-2; > 100 µM (inactive) in the experiment on HOP-62; 39.1 µM (inactive) in the experiment with SNB-75; > 100 µM (inactive) with SN12C; > 100 µM (inactive) in the experiment with SW-620. Besides, the GI50 in the experiment on HOP-92 is > 100 µM (inactive); in the experiment with SK-MEL-5 it was 38.8 µM (inactive); in the experiment with HCT-15, 89.5 µM; in the experiment on SNB-19, > 100 µM (inactive); in the experiment on HL-60, 39.4 µM (inactive); in the experiment on HT-29, > 100 µM (inactive). Further, the GI50 in the experiment on HCT-116 was 54.3 µM (inactive); in the experiment on A549, > 100 µM (inactive); with U-251, 78 µM (inactive); with SK-MEL-28, 55.6 µM (inactive).

Take `N=C(N)N/N=C(/CC1OC(=O)c2ccccc21)c1ccc2ccccc2c1` (configuration not stated): the GI50 with NCI-H226 was 13.7 µM (inactive); with SK-MEL-2, 46.9 µM (inactive); in the experiment on HOP-62, 18.5 µM (inactive); with SNB-75, 20 µM (inactive); in the experiment with SN12C it was 19.6 µM (inactive); with LOX IMVI, 23.1 µM (inactive). Besides, the GI50 in the experiment with HOP-92 is 22 µM (inactive); with SK-MEL-5, 21.4 µM (inactive); with HCT-15 it was 15.3 µM; with SNB-19, > 100 µM (inactive); with SF-268, 13.6 µM (inactive); with HL-60, 17.8 µM (inactive). The figures for the GI50 with HT-29, in the experiment with U-251 and in the experiment on SK-MEL-28 were 21.9 µM (inactive), 14.6 µM (inactive) and 18.6 µM (inactive), respectively.

For the compound `COC(=O)Cc1nn2c(nc1=O)sc1ccc3ccccc3c12`, the GI50 was > 100 µM (inactive) in the experiment on NCI-H226; 93.8 µM (inactive) in the experiment with SK-MEL-2; 72.1 µM (inactive) with HOP-62; 37.3 µM (inactive) in the experiment with SNB-75; > 100 µM (inactive) in the experiment with SN12C; 67.3 µM (inactive) with LOX IMVI. Besides, the GI50 with SW-620 was > 100 µM (inactive); in the experiment with HOP-92 it was 63.8 µM (inactive); in the experiment with SK-MEL-5 it was > 100 µM (inactive); in the experiment with HCT-15, more than 100 µM; with SNB-19, > 100 µM (inactive); in the experiment with HL-60, > 100 µM (inactive). Also, the GI50 is > 100 µM (inactive) in the experiment on HT-29; > 100 µM (inactive) in the experiment on HCT-116; > 100 µM (inactive) in the experiment with A549; 25.1 µM (inactive) in the experiment on U-251; > 100 µM (inactive) in the experiment with SK-MEL-28.

`CC(=O)CCCCO`: the GI50 in the experiment with SK-MEL-2, in the experiment with HOP-62, in the experiment on SNB-75, in the experiment on SN12C, with LOX IMVI and with SW-620 was > 100 µM (inactive) throughout. Further, the GI50 with HOP-92 was > 100 µM (inactive); with SK-MEL-5 it was > 100 µM (inactive); in the experiment with HCT-15, more than 100 µM; in the experiment on SNB-19, > 100 µM (inactive); in the experiment with SF-268, > 100 µM (inactive); in the experiment with HL-60, > 100 µM (inactive). In addition, the GI50 with HT-29, in the experiment with HCT-116, with A549, in the experiment on U-251 and with SK-MEL-28 was > 100 µM (inactive) in each case.

Regarding `COC1(OC)CC2C=C(S(=O)(=O)c3ccccc3)C1N(Cc1ccccc1)C2=O` (configuration not stated), the GI50 is 29.9 µM (inactive) in the experiment on NCI-H226; 97.7 µM (inactive) with HOP-62; 36.5 µM (inactive) in the experiment with SNB-75; 23 µM (inactive) with SN12C; 16.1 µM (inactive) in the experiment on LOX IMVI; 22.6 µM (inactive) in the experiment with SW-620. Further, the GI50 in the experiment with HOP-92 was 28.3 µM (inactive); in the experiment on SK-MEL-5, 32.3 µM (inactive); in the experiment with SNB-19, 39.8 µM (inactive); in the experiment on SF-268 it was > 100 µM (inactive); in the experiment with HL-60, 16.2 µM (inactive); in the experiment on HT-29, 28.1 µM (inactive). Moreover, the GI50 in the experiment with HCT-116 is 13.4 µM (inactive); with A549, 33 µM (inactive); in the experiment on U-251, 34.8 µM (inactive); in the experiment on SK-MEL-28, 31 µM (inactive).

As for `C=CCNC(=O)N(CCCC(NC(C)=O)C(=O)NCc1ccccc1)Cc1ccccc1` (configuration not stated), the GI50 in the experiment with NCI-H226, with SK-MEL-2, with HOP-62, in the experiment on SNB-75, in the experiment on SN12C and with LOX IMVI was > 100 µM (inactive) in each case. For the same compound, the GI50 in the experiment with SW-620 was > 100 µM (inactive); with HOP-92, 83 µM (inactive); with SK-MEL-5, > 100 µM (inactive); with HCT-15, more than 100 µM; with SNB-19, > 100 µM (inactive); in the experiment with SF-268, > 100 µM (inactive). Further, the GI50 in the experiment with HL-60, in the experiment with HT-29, in the experiment on A549, with U-251 and in the experiment with SK-MEL-28 was > 100 µM (inactive) throughout.
